Data taken from US20230091225A1, “Bifunctional chimeric heterocyclic compounds for targeted degradation of androgen receptors and use thereof” (HINOVA PHARMACEUTICALS INC., priority 2019, published 2023).

Each compound was assayed on LNCaP/AR cells (assay: Inhibition of proliferation of LNCaP/AR prostate cancer cells (CCK-8)). Conditions: 144 h; proliferation of LNCap/AR cells, 6 days, CCK-8; read-out: IC50.
Format: cell-based

Compound | IC50 [nM]
Cc1ncsc1-c1ccc([C@H](C)NC(=O)[C@@H]2C[C@@H](O)CN2C(=O)[C@@H](NC(=O)COCCCC#Cc2ccc3c(c2)CN([C@H]2C(C)(C)[C@H](Oc4ccc(C#N)c(Cl)c4)C2(C)C)C3=O)C(C)(C)C)cc1 [Compound 21] | < 100
Cc1ncsc1-c1ccc([C@H](C)NC(=O)[C@@H]2C[C@@H](O)CN2C(=O)[C@@H](NC(=O)COCCCCC#Cc2ccc3c(c2)CN([C@H]2C(C)(C)[C@H](Oc4ccc(C#N)c(Cl)c4)C2(C)C)C3=O)C(C)(C)C)cc1 [Compound 29] | < 100
CC1(C)[C@H](Oc2ccc(C#N)c(Cl)c2)C(C)(C)[C@H]1N1Cc2cc(C#Cc3cnn(C4CN(c5cc6c(cc5F)C(=O)N(C5CCC(=O)NC5=O)C6=O)C4)c3)ccc2C1=O (stereo partly drawn) [Compound 45] | > 1000
CC1(C)[C@H](Oc2ccc(C#N)c(Cl)c2)C(C)(C)[C@H]1N1Cc2cc(C#CC3CCN(C4CCN(c5ccc6c(c5)C(=O)N(C5CCC(=O)NC5=O)C6=O)CC4)CC3)ccc2C1=O (stereo partly drawn) [Compound 52] | 100 to 500
CC1(C)[C@H](Oc2ccc(C#N)c(Cl)c2)C(C)(C)[C@H]1N1Cc2cc(C#CC3CCN(C4CN(c5ccc6c(c5)C(=O)N(C5CCC(=O)NC5=O)C6=O)C4)CC3)ccc2C1=O (stereo partly drawn) [Compound 53, 2-chloro-4-((1r,3r)-3-(5-((1-(I-(2-(2,6-dioxopiperidin-3-yl)-1,3-dioxoisoindolin-5-yl)azelaic acid-3-yl)piperidin-4-yl)ethynyl)-1-oxoisoindolin-2-yl)-2,2,4,4-tetramethylcyclobutoxy)benzonitrile] | 100 to 500
[2H]C([2H])([2H])N(C(=O)c1ccc(N2CCC(CN3CCN(c4cc5c(cc4F)C(=O)N(C4CCC(=O)NC4=O)C5)CC3)CC2)nc1)[C@H]1CC[C@H](Oc2ccc(C#N)c(Cl)c2)CC1 (stereo partly drawn) [Compound 305, N-((1r,4r)-4-(3-chloro-4-cyanophenoxy)cyclohexyl)-6-(4-((4-(2-(2,6-dioxopiperidin-3-yl)-6-fluoro-1-oxoisoindol-5-yl)piperazin-1-yl)methyl)piperidin-1-yl)-N-deuteromethylnicotinamide] | 500 to 1000
[2H]C([2H])([2H])N(C(=O)c1ccc(N2CCC(CN3CCN(c4cc5c(cc4F)CN(C4CCC(=O)NC4=O)C5=O)CC3)CC2)nc1)[C@H]1CC[C@H](Oc2ccc(C#N)c(Cl)c2)CC1 (stereo partly drawn) [Compound 306, N-((1r,4r)-4-(3-chloro-4-cyanophenoxy)cyclohexyl)-6-(4-((4-(2-(2,6-dioxopiperidin-3-yl)-6-fluoro-3-oxoisoindol-5-yl)piperazin-1-yl)methyl)piperidin-1-yl)-N-deuteromethylnicotinamide] | > 1000
N#Cc1ccc(O[C@H]2CC[C@H](N3Cc4cc(N5CCC(CN6CCN(c7ccc8c(c7)CN(C7CCC(=O)NC7=O)C8=O)CC6)CC5)ncc4C3=O)CC2)cc1Cl (stereo partly drawn) [Compound 312] | 100 to 500
N#Cc1ccc(O[C@H]2CC[C@H](N3Cc4cc(N5CCC(CN6CCN(c7cc8c(cc7F)C(=O)N(C7CCC(=O)NC7=O)C8)CC6)CC5)ncc4C3=O)CC2)cc1Cl (stereo partly drawn) [Compound 313] | < 100
[2H]C1([2H])c2cc(C#CCCCOCC(=O)N[C@H](C(=O)N3C[C@H](O)C[C@H]3C(=O)N[C@@H](C)c3ccc(-c4scnc4C)cc3)C(C)(C)C)ccc2C(=O)N1[C@H]1C(C)(C)[C@H](Oc2ccc(C#N)c(Cl)c2)C1(C)C [Compound 403] | < 100
Cc1ncsc1-c1ccc([C@H](C)NC(=O)[C@@H]2C[C@@H](O)CN2C(=O)[C@@H](NC(=O)COCCCCC#Cc2ccc(C(=O)N[C@H]3C(C)(C)[C@H](Oc4ccc(C#N)c(Br)c4)C3(C)C)cc2)C(C)(C)C)cc1 [Compound 404] | < 100
Cc1ncsc1-c1ccc([C@H](C)NC(=O)[C@@H]2C[C@@H](O)CN2C(=O)[C@@H](NC(=O)COCCCCCCc2ccc3c(c2)CN([C@H]2C(C)(C)[C@H](Oc4ccc(C#N)c(Cl)c4)C2(C)C)C3=O)C(C)(C)C)cc1 [Compound 408, (2S,4R)-1-((S)-2-(2-((6-(2-((1r,3r)-3-(3-chloro-4-cyanophenoxy)-2,2,4,4-tetramethylcyclobutyl)-1-oxoisoindolin-5-yl)hexyl)oxy)acetamide)-3,3-dimethylbutyryl)-4-hydroxy-N-((S)-1-(4-(4-methylthiazol-5-yl)phenyl)ethyl) pyrrolidine-2-carboxamide] | 100 to 500
Cc1ncsc1-c1ccc([C@H](C)NC(=O)[C@@H]2C[C@@H](O)CN2C(=O)[C@@H](NC(=O)COCC2CCN(c3ccc4c(c3)CN([C@H]3C(C)(C)[C@H](Oc5ccc(C#N)c(Cl)c5)C3(C)C)C4=O)CC2)C(C)(C)C)cc1 [Compound 409] | < 100
CC(=O)O[C@@H]1C[C@@H](C(=O)N[C@@H](C)c2ccc(-c3scnc3C)cc2)N(C(=O)[C@@H](NC(=O)COCC2CCN(c3ccc4c(c3)CN([C@H]3C(C)(C)[C@H](Oc5ccc(C#N)c(Cl)c5)C3(C)C)C4=O)CC2)C(C)(C)C)C1 [Compound 410] | < 100
Cc1ncsc1-c1ccc([C@H](C)NC(=O)[C@@H]2C[C@@H](O)CN2C(=O)[C@@H](NC(=O)COCCCCCNc2ccc3c(c2)CN([C@H]2C(C)(C)[C@H](Oc4ccc(C#N)c(Cl)c4)C2(C)C)C3=O)C(C)(C)C)cc1 [Compound 411] | < 100
CC(=O)O[C@@H]1C[C@@H](C(=O)N[C@@H](C)c2ccc(-c3scnc3C)cc2)N(C(=O)[C@@H](NC(=O)COCCCCCNc2ccc3c(c2)CN([C@H]2C(C)(C)[C@H](Oc4ccc(C#N)c(Cl)c4)C2(C)C)C3=O)C(C)(C)C)C1 [Compound 412] | < 100
Cc1ncsc1-c1ccc([C@H](C)NC(=O)[C@@H]2C[C@@H](O)CN2C(=O)[C@@H](NC(=O)COCCCCCNc2ccc3c(c2)CN([C@H]2C(C)(C)[C@H](Oc4ccc(C#N)c(Br)c4)C2(C)C)C3=O)C(C)(C)C)cc1 [Compound 433, (2S,4R)-1-((S)-2-(2-((5-((2-((1r,3r)-3-(3-bromo-4-cyanophenoxy)-2,2,4,4-tetramethylcyclobutyl)-1-oxoisoindolin-5-yl)amino)pentyl)oxy)acetylamino)-3,3-dimethylbutyryl)-4-hydroxy-N-((S)-1-(4-(4-methylthiazole5-yl)phenyl)ethyl) pyrrolidinyl-2-carboxamide] | > 1000

Same assay, conditions: LNCaP/AR, 144 h

Compound | IC50 [nM]
Cc1ncsc1-c1ccc([C@H](C)NC(=O)[C@@H]2C[C@@H](O)CN2C(=O)[C@@H](NC(=O)COCCOC(C)C#Cc2ccc3c(c2)CN([C@H]2C(C)(C)[C@H](Oc4ccc(C#N)c(Cl)c4)C2(C)C)C3=O)C(C)(C)C)cc1 (stereo partly drawn) [Compound 37] | < 100
Cc1ncsc1-c1ccc([C@H](C)NC(=O)[C@@H]2C[C@@H](O)CN2C(=O)[C@@H](NC(=O)CCN2CC(CC#Cc3ccc4c(c3)CN([C@H]3C(C)(C)[C@H](Oc5ccc(C#N)c(Cl)c5)C3(C)C)C4=O)C2)C(C)(C)C)cc1 [Compound 44] | 100 to 500
N#Cc1ccc(O[C@H]2CC[C@H](N3Cc4cc(N5CCC(CN6CCN(c7cc8c(cc7F)C(=O)N(C7CCC(=O)NC7=O)C8=O)CC6)CC5)ncc4C3=O)CC2)cc1Cl (stereo partly drawn) [Compound 311] | > 1000

Same assay, conditions: proliferation of LNCap/AR cells, 6 days, CCK-8; read-out: IC50

Compound | IC50 [nM]
2-chloro-4-((1r,4r)-4-(2-(4-((4-(3-(2,6-dioxopiperidin-3-yl)-2-methyl-4-oxo-3,4-dihydroquinazoline-7-yl)piperazin-1-yl)methyl)piperidin-1-yl)-5-oxo-5H-pyrrolo[3,4-b]pyridin-6(7H)-yl)cyclohexyl)oxy)benzonitrile [Compound 309] | 100 to 500
Cc1ncsc1-c1ccc([C@H](C)NC(=O)[C@@H]2C[C@@H](O)CN2C(=O)[C@@H](NC(=O)C2(C(=O)NCCCC#Cc3ccc4c(c3)CN(C3C(C)(C)C(Oc5ccc(C#N)c(Cl)c5)C3(C)C)C4=O)CC2)C(C)(C)C)cc1 (stereo partly drawn) [Compound 25] | < 100
Cc1ncsc1-c1ccc([C@H](C)NC(=O)[C@@H]2C[C@@H](O)CN2C(=O)[C@@H](NC(=O)COCCCCn2cc(-c3ccc4c(c3)CN([C@H]3C(C)(C)[C@H](Oc5ccc(C#N)c(Cl)c5)C3(C)C)C4=O)nn2)C(C)(C)C)cc1 [Compound 30, (2s,4r)-1-((s)-2-(2-(4-(4-(2-((1r,3r)-3-(3-chloro-4-cyanophenoxy)-2,2,4,4-tetramethylcyclobutyl)-1-oxoisobutanol-5-yl)-1H-1,2,3-triazol-1-yl)butoxy)acetamido)-3,3-dimethylbutyryl)-4-hydroxy-N-((S)-1-(4-(4-methylthiazol-5-yl)phenyl)ethyl)pyrrolidine-2-carboxamide] | 100 to 500
Cc1ncsc1-c1ccc([C@H](C)NC(=O)[C@@H]2C[C@@H](O)CN2C(=O)[C@@H](NC(=O)C2(OCCCCC#Cc3ccc4c(c3)CN(C3C(C)(C)C(Oc5ccc(C#N)c(Cl)c5)C3(C)C)C4=O)CC2)C(C)(C)C)cc1 (stereo partly drawn) [Compound 41] | < 100
CC1(C)C(Oc2ccc(C#N)c(Cl)c2)C(C)(C)C1N1Cc2nc(N3CCC(CN4CCN(c5ccc6c(c5)C(=O)N([C@@H]5CCC(=O)NC5=O)C6=O)CC4)CC3)ccc2C1=O (stereo partly drawn) [Compound 202, 2-chloro-4-((1r,3r)-3-(2-(4-((4-(2,6-dioxopiperidin-3-yl-1,3-dioxoisoindolin-5-yl)piperazin-1-yl)methyl)piperidin-1-yl)-5-oxo-5,7-dihydro-6H-pyrrolo[3,4-b]pyridin-6-yl)-2,2,4,4-tetramethylcyclobutoxy)benzonitrile] | 100 to 500
CN1C(=O)CCC(N2Cc3cc(F)c(N4CCN(CC5CCN(c6ccc7c(n6)CN(C6CCC(Oc8ccc(C#N)c(Cl)c8)CC6)C7=O)CC5)CC4)cc3C2=O)C1=O (stereo not drawn) [Compound 307, 2-chloro-4-((1r,4r)-4-(2-(4-((4-(6-fluoro-2-(1-methyl-2,6-dioxopiperidin-3-yl)-3-oxoisoindolin-5-yl)piperazin-1-yl)methyl)piperidin-1-yl)-5-oxo-5H-pyrrolo[3,4-b]pyridin-6(7H)-yl)cyclohexyl)oxy)benzonitrile] | 500 to 1000
CC1(C)[C@H](Oc2ccc(C#N)c(Cl)c2)C(C)(C)[C@H]1N1Cc2cc(C#Cc3cnn(C4CN(c5cc6c(cc5F)C(=O)N(C5CCC(=O)NC5=O)C6=O)C4)c3)ccc2C1=O (stereo partly drawn) [Compound 310, 2-chloro-4-((1r,3r)-3-(5-((1-(1-(2-(2,6-dioxopiperidin-3-yl)-6-fluoro-1,3-dioxoisoindolin-5-yl)azetidine-3-yl)-1H-pyrazol-4-yl)ethynyl)-1-oxoisoindolin-2-yl)-2,2,4,4-tetramethylcyclobutoxy)benzonitrile] | > 1000
